In PMC5007443, “TNIK inhibition abrogates colorectal cancer stemness” (Nature Communications, 2016):
Several values for one entry are separate records, joined by “and”; a condition that tells them apart may be missing. Identical values can stand only once.

Legend:
ITK = ITK (Homo sapiens, UniProt Q08881); assay: Kinase selectivity profiling, IL2-inducible T-cell kinase; type: biochemical; conditions: read-out: Percentage inhibition of ITK
Protocol: (§1) The selectivity of compounds against a panel of 50 human protein kinases was assessed using a non-radiometric assay.

DYRK1B = DYRK1B (Homo sapiens, UniProt Q9Y463); assay: Kinase selectivity profiling, Dual-specificity tyrosine-phosphorylation regulated kinase 1B; type: biochemical; conditions: read-out: Percentage inhibition of DYRK1B
Protocol: as §1

IKKβ = IKKβ (Homo sapiens, UniProt O14920); assay: Kinase selectivity profiling, I-kappa-B kinase-β; type: biochemical; conditions: read-out: Percentage inhibition of IKKβ
Protocol: as §1

CDK2/CycA2 = CDK2/CycA2 (Homo sapiens, UniProt P24941); assay: Kinase selectivity profiling, Cyclin-dependent kinase 2/cyclin A2; type: biochemical; conditions: 0.1 µM inhibitor, ATP at Km
Protocol: as §1

HGK = HGK (Homo sapiens, UniProt O95819); assay: Kinase selectivity profiling, Hematopoietic progenitor kinase; type: biochemical; conditions: 0.1 µM inhibitor, ATP at Km; for inhibition at 0.1 µM: read-out: Percentage inhibition of HGK
Protocol: as §1

SRC = SRC (Homo sapiens, UniProt P12931); assay: Kinase selectivity profiling, v-Src sarcoma viral oncogene homolog; type: biochemical; conditions: read-out: Percentage inhibition of SRC
Protocol: as §1

PDGFRα = PDGFRα (Homo sapiens, UniProt P16234); assay: Kinase selectivity profiling, Platelet-derived growth factor receptor α; type: biochemical; conditions: 0.1 µM inhibitor, ATP at Km; for inhibition at 0.1 µM: read-out: Percentage inhibition of PDGFRα
Protocol: as §1

[1] = system: patient-derived colorectal cancer spheroids #6; assay: ATP production of patient-derived spheroid #6; type: cell-based; conditions: Homo sapiens, 72 h; spheroid #6, 3 days
Protocol: Cells were seeded at a density of 3,000 cells per well in 96-well plates. Twenty-four hours after seeding, the cells were exposed to serially diluted compounds (0.003, 0.01, 0.03, 0.1, 0.3, 1, 3 and 10 μM) and incubated for 72 h (Fig. 3a). Patient-derived colorectal cancer spheroids were dissociated into single cells with Accutase (Nacalai Tesque) and seeded at a density of 3,000 cells per well into Ultra-Low attachment multiwall 96-well plates (Corning; Fig. 6d). ATP was measured with a CellTiter-Glo Luminescent Cell Viability Assay kit (Promega). Experiments were performed in triplicate and repeated at least two times.

KDR = KDR (Homo sapiens, UniProt P35968); assay: Kinase selectivity profiling, Kinase insert domain receptor; type: biochemical; conditions: read-out: Percentage inhibition of KDR
Protocol: as §1

AKT1 = AKT1 (Homo sapiens, UniProt P31749); assay: Kinase selectivity profiling, v-Akt murine thymoma viral oncogene homolog 1; type: biochemical; conditions: read-out: Percentage inhibition of AKT1
Protocol: as §1

EPHA2 = EPHA2 (Homo sapiens, UniProt P29317); assay: Kinase selectivity profiling, EPH receptor A2; type: biochemical; conditions: read-out: Percentage inhibition of EPHA2
Protocol: as §1

HCT116 cells = assay: Limiting dilution analysis of sphere formation, HCT116; type: cell-based, human
Protocol: One million HCT116 and DLD-1 cells were seeded onto 60-mm plates and treated with vehicle (DMSO) or compounds (0.1, 0.3 or 1.0 μM) for either 3 or 4 days. After washing off the compounds, the cells were dissociated to single cells in serum-free DMEM/F12 medium (Thermo Fisher Scientific) containing B27 (Thermo Fisher Scientific), 20 ng ml^−1 epidermal growth factor (EGF; Thermo Fisher Scientific), 10 ng ml^−1 basic fibroblast factor (bFGF; Thermo Fisher Scientific), 5 μg ml^−1 insulin (Thermo Fisher Scientific), 0.4% bovine serum albumin (Sigma-Aldrich) and 2 mM L-glutamine (Thermo Fisher Scientific). One hundred, 10 or 1 viable (determined by trypan-blue dye exclusion) cells were seeded into each well of a 96-well U-bottom PrimeSurface plate (Sumitomo Bakelite). Ten days later, the number of wells showing sphere formation was counted. The frequency of sphere-forming cells was calculated using ELDA software (http://bioinf.wehi.edu.au/software/elda/index.html) provided by the Walter and Eliza Hall Institute (Fig. 5c; Supplementary Table 2). Experiments were performed in triplicate and repeated at least two times.

[2] = HCT116, 3-day treatment, 0.1μM, 1 cell per well
[3] = HCT116, 3-day treatment, 0.1μM, 10 cells per well
[4] = HCT116, 3-day treatment, 0.1μM, 100 cells per well
[5] = HCT116, 3-day treatment, 0.3μM, 1 cell per well
[6] = HCT116, 3-day treatment, 0.3μM, 10 cells per well
[7] = HCT116, 3-day treatment, 0.3μM, 100 cells per well
[8] = HCT116, 3-day treatment, 1.0μM, 1 cell per well
[9] = HCT116, 3-day treatment, 1.0μM, 10 cells per well
[10] = HCT116, 3-day treatment, 1.0μM, 100 cells per well
[11] = HCT116, 4-day treatment, 0.1μM, 1 cell per well
[12] = HCT116, 4-day treatment, 0.1μM, 10 cells per well
[13] = HCT116, 4-day treatment, 0.1μM, 100 cells per well
[14] = HCT116, 4-day treatment, 0.3μM, 1 cell per well
[15] = HCT116, 4-day treatment, 0.3μM, 10 cells per well
[16] = HCT116, 4-day treatment, 0.3μM, 100 cells per well
[17] = HCT116, 4-day treatment, 1.0μM, 1 cell per well
[18] = HCT116, 4-day treatment, 1.0μM, 10 cells per well
[19] = HCT116, 4-day treatment, 1.0μM, 100 cells per well

PDGFRα, sequence (P16234 24-1089): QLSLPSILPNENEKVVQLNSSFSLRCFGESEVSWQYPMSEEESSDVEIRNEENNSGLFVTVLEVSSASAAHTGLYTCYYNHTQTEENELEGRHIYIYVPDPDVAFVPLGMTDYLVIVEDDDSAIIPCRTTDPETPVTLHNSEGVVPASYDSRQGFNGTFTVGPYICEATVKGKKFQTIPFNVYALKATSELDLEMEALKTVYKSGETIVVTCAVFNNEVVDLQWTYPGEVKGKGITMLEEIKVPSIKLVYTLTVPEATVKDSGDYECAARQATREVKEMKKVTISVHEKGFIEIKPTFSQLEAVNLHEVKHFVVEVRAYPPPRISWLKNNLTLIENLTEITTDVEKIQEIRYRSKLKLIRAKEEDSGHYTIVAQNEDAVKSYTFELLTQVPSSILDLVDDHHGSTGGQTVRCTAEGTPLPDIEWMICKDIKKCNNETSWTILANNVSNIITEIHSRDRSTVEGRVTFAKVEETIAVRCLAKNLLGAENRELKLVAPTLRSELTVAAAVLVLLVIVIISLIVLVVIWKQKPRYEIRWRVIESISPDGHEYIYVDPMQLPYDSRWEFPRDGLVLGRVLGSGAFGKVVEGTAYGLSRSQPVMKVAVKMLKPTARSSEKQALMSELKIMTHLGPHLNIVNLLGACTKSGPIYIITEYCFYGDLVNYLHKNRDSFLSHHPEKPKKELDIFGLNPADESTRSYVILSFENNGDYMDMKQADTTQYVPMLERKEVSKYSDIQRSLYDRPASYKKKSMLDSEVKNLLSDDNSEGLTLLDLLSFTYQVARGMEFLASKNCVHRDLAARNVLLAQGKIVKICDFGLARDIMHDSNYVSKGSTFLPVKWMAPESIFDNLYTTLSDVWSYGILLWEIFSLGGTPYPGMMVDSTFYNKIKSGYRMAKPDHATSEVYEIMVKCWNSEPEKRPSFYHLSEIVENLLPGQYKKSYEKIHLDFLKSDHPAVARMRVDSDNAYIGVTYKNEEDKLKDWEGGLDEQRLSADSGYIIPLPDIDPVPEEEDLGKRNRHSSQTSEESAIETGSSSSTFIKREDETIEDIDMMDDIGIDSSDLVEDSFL
HGK, sequence (O95819 whole entry): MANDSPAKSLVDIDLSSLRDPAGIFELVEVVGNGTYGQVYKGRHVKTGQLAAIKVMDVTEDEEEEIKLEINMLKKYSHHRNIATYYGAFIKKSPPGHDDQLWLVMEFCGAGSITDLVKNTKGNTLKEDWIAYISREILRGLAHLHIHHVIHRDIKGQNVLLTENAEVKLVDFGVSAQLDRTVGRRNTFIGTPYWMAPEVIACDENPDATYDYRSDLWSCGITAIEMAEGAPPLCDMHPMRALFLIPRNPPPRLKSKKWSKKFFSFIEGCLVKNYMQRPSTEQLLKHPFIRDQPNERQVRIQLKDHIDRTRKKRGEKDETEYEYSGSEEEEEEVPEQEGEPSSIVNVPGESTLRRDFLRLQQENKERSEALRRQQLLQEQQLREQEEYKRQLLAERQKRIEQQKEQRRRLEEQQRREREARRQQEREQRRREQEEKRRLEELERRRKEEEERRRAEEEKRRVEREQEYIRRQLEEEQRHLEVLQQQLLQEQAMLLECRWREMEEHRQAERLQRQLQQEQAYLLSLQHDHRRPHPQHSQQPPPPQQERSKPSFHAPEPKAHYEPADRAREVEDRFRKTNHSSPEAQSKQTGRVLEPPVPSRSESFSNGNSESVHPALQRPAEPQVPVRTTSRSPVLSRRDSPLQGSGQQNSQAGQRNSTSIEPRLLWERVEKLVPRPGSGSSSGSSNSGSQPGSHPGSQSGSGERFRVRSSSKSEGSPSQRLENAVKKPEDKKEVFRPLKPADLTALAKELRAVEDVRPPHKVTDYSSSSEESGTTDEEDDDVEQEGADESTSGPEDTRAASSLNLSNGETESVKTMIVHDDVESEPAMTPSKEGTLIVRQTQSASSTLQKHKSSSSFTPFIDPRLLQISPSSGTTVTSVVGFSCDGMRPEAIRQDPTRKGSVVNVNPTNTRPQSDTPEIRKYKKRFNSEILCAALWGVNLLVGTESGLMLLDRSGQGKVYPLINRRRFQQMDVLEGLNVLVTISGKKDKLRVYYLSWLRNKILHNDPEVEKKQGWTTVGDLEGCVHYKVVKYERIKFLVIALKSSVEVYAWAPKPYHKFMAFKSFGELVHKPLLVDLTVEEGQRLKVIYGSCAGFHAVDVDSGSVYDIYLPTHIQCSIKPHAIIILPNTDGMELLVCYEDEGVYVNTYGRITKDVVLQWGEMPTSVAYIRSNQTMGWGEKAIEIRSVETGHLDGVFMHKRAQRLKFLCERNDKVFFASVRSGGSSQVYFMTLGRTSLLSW
ITK, sequence (Q08881 whole entry): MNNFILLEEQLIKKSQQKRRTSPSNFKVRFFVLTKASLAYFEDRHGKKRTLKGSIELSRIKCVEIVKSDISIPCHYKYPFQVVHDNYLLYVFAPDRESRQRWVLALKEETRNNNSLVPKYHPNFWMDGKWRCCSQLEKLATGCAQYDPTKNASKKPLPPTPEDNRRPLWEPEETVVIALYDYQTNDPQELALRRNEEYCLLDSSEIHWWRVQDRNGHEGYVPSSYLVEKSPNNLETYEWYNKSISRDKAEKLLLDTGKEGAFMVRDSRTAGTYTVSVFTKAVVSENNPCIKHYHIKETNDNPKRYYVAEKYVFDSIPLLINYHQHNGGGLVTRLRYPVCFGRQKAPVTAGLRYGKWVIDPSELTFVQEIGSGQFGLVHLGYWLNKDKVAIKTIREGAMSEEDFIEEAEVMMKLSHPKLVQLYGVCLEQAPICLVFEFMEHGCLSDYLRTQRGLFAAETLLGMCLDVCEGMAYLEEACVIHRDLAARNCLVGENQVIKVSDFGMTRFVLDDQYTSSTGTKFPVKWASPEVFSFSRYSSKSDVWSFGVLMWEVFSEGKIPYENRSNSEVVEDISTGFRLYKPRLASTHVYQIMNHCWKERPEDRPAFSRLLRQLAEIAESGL
KDR, sequence (P35968 20-1356): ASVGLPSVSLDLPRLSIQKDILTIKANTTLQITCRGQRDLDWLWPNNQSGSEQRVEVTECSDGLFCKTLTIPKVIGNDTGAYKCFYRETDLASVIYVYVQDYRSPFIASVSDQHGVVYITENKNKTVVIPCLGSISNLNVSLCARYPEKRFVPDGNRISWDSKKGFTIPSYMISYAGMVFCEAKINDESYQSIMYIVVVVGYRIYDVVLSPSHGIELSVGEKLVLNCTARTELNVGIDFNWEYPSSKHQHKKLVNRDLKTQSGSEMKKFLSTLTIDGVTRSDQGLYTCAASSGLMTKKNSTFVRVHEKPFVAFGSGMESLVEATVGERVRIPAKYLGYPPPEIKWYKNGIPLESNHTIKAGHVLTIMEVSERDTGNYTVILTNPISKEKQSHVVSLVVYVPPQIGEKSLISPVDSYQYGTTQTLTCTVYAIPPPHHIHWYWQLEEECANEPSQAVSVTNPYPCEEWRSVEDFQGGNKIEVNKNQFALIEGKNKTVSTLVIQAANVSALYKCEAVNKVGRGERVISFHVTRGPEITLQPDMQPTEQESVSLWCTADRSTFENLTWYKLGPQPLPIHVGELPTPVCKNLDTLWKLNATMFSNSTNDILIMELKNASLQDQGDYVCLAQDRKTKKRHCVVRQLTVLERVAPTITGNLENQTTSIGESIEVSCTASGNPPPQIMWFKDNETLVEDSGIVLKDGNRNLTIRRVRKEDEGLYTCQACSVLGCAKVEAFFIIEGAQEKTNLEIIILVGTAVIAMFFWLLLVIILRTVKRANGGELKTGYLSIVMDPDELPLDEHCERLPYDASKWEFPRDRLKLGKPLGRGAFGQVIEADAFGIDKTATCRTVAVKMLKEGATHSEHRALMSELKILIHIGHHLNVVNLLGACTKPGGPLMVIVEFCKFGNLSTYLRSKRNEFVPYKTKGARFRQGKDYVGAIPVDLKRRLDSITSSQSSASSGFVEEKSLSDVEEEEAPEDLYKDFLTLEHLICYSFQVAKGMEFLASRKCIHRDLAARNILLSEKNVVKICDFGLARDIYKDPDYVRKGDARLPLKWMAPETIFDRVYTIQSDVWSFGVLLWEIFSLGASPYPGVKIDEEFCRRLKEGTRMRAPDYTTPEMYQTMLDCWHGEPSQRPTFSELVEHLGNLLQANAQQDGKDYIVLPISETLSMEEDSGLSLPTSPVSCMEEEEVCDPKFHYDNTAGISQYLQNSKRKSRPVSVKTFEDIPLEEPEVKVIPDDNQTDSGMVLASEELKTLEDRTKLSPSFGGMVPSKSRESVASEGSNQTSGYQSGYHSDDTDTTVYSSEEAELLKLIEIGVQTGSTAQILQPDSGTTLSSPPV
DYRK1B, sequence (Q9Y463 whole entry): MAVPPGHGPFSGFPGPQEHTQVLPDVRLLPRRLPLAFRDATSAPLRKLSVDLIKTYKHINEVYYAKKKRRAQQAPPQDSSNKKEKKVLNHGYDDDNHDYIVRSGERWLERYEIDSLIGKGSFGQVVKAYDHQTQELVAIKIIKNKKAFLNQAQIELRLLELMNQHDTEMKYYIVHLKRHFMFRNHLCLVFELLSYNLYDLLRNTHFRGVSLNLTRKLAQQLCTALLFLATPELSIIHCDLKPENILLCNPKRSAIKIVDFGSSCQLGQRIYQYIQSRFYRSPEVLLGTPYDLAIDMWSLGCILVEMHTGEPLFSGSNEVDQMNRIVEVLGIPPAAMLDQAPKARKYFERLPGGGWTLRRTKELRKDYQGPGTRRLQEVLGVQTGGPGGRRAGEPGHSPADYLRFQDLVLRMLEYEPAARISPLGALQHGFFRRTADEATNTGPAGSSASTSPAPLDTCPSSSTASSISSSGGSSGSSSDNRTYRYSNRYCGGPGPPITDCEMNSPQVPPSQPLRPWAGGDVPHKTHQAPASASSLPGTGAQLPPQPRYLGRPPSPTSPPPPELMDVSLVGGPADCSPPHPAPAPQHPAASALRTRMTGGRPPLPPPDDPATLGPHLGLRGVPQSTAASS

| SMILES | inhibition at 0.1 µM (ITK) [%] | inhibition at 0.1 µM (DYRK1B) [%] | inhibition at 0.1 µM (IKKβ) [%] | inhibition at 0.1 µM (HGK) [%] | inhibition at 0.1 µM (SRC) [%] | inhibition at 0.1 µM (PDGFRα) [%] | IC50 [1] [nM] | inhibition at 0.1 µM (KDR) [%] | inhibition at 0.1 µM (AKT1) [%] | inhibition at 0.1 µM (EPHA2) [%] | Sphere-containing wells/total wells (HCT116 cells; [2]) | Sphere-containing wells/total wells (HCT116 cells; [3]) | Sphere-containing wells/total wells (HCT116 cells; [4]) | Sphere-containing wells/total wells (HCT116 cells; [5]) | Sphere-containing wells/total wells (HCT116 cells; [6]) | Sphere-containing wells/total wells (HCT116 cells; [7]) | Sphere-containing wells/total wells (HCT116 cells; [8]) | Sphere-containing wells/total wells (HCT116 cells; [9]) | Sphere-containing wells/total wells (HCT116 cells; [10]) | Sphere-containing wells/total wells (HCT116 cells; [11]) | other results |
| --- | --- | --- | --- | --- | --- | --- | --- | --- | --- | --- | --- | --- | --- | --- | --- | --- | --- | --- | --- | --- | --- |
| O[C@H]1CC[C@@H](Oc2cccc3cnc(Nc4ccc5nc[nH]c5c4)nc23)CC1 [NCB-0846, cis-4-(2-(3H-benzo[d]imidazol-5-ylamino)quinazolin-8-yloxy)cyclohexanol] | 10 | 8.9 | 6.8 | > 80 | 19 | > 80 | 680 | 71.1 | -3.4 | 13.6 | 60/96 | 96/96 | 96/96 | 47/96 | 96/96 | 96/96 | 3/96 | 21/96 | 95/96 | 69/96 | Percentage inhibition of CDK2/CycA2 (CDK2/CycA2; 0.1 µM): > 80% and 101.1%; Percentage inhibition of HGK (HGK; 0.1 µM): 80.5%; Percentage inhibition of PDGFRα (PDGFRα; 0.1 µM): 89.0%; Sphere-containing wells/total wells (HCT116 cells; [12]): 96/96; Sphere-containing wells/total wells (HCT116 cells; [13]): 96/96; Sphere-containing wells/total wells (HCT116 cells; [14]): 41/96; Sphere-containing wells/total wells (HCT116 cells; [15]): 96/96; Sphere-containing wells/total wells (HCT116 cells; [16]): 96/96; Sphere-containing wells/total wells (HCT116 cells; [17]): 0/96; Sphere-containing wells/total wells (HCT116 cells; [18]): 19/96; Sphere-containing wells/total wells (HCT116 cells; [19]): 93/96; sphere formation activity (HCT116 cells; HCT116, short-term (3–4 days) treatment): significantly abrogated |
| O[C@H]1CC[C@H](Oc2cccc3cnc(Nc4ccc5nc[nH]c5c4)nc23)CC1 [NCB-0970] | 9 | -2.4 | 7.9 | 21.8 | 14.4 | 45.6 | > 3000 | 43.7 | -4.4 | 8.7 | 62/96 | 96/96 | 96/96 | 65/96 | 96/96 | 96/96 | 60/96 | 96/96 | 96/96 | 59/96 | inhibition at 0.1 µM (CDK2/CycA2; read-out: Percentage inhibition of CDK2/CycA2): 93%; Sphere-containing wells/total wells (HCT116 cells; [12]): 96/96; Sphere-containing wells/total wells (HCT116 cells; [13]): 96/96; Sphere-containing wells/total wells (HCT116 cells; [14]): 60/96; Sphere-containing wells/total wells (HCT116 cells; [15]): 96/96; Sphere-containing wells/total wells (HCT116 cells; [16]): 96/96; Sphere-containing wells/total wells (HCT116 cells; [17]): 56/96; Sphere-containing wells/total wells (HCT116 cells; [18]): 96/96; Sphere-containing wells/total wells (HCT116 cells; [19]): 96/96 |
